Test systems include MDA-MB-231; ACHN; OVCAR-4; DU-145; EKVX; TK-10; HOP-92; SK-MEL-2; SW-620; SNB-19; M14; SR; SK-OV-3; SF-539; CAKI-1; IGROV-1; UACC-62; K562; NCI-H226; HT-29.
What all share (experiment): NCI anticancer screen, dose series, 48 h

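Cells were grown in 96-well plates and exposed to each compound for 48 hours at five concentrations; endpoints were interpolated linearly between bracketing concentrations, or set to the highest concentration if not reached. GI50: concentration for 50% inhibition of growth.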 Activity calls are given as the source filed them. No stated cut-off is given here; in the data, active = GI50 up to about 1.1 µM and inactive = higher.

Take `O=C1CCCC/C1=C\c1ccc(Br)cc1`: the GI50 in the assay on MDA-MB-231 was 16.8 µM (inactive); in the assay with ACHN it was 2.75 µM (inactive); in the assay on OVCAR-4, 22 µM (inactive); with DU-145, 40 µM (inactive); in the assay with EKVX, 24.8 µM (inactive); with TK-10, 16.7 µM (inactive). Further, the GI50 in the assay on HOP-92 is 17.1 µM (inactive); with SK-MEL-2, 22.6 µM (inactive); in the assay on SW-620, > 100 µM (inactive); with SNB-19, 3.69 µM (inactive); with M14, 12.4 µM (inactive); in the assay with SR it was 4.2 µM (inactive). Also, the GI50 in the assay with SK-OV-3 is 24.8 µM (inactive); with SF-539 it was 19.9 µM (inactive); in the assay with CAKI-1, 17 µM (inactive); with IGROV-1, 19.7 µM (inactive); in the assay on UACC-62, 6.61 µM (inactive); in the assay with K562, 4.33 µM (inactive).
With `NNC(=O)c1ccccc1NC(=O)/C(=C/c1ccccc1)NC(=O)c1ccccc1`, the GI50 in the assay with MDA-MB-231 was 47.9 µM (inactive); in the assay on ACHN it was > 100 µM (inactive); with OVCAR-4 it was > 100 µM (inactive); in the assay on DU-145 it was > 100 µM (inactive); in the assay on EKVX it was > 100 µM (inactive); in the assay on TK-10 it was > 100 µM (inactive). Moreover, the GI50 was > 100 µM (inactive) with HOP-92; > 100 µM (inactive) with SK-MEL-2; > 100 µM (inactive) with SW-620; 43 µM (inactive) with SNB-19; 81.1 µM (inactive) with M14; > 100 µM (inactive) with SK-OV-3. Moreover, the GI50 with SF-539 was > 100 µM (inactive); in the assay with CAKI-1, > 100 µM (inactive); with IGROV-1 it was 68.1 µM (inactive); with NCI-H226, > 100 µM (inactive); with UACC-62, > 100 µM (inactive); in the assay with HT-29 it was > 100 µM (inactive). Moreover, in the assay on K562, the GI50 is > 100 µM (inactive).
For the molecule `CCOc1ccc2ccccc2c1NC1=NCCO1`, the GI50 in the assay with MDA-MB-231 is > 100 µM (inactive); in the assay on ACHN, 20.6 µM (inactive); in the assay with OVCAR-4, 26.8 µM (inactive); in the assay on DU-145, > 100 µM (inactive); in the assay with EKVX it was 60.8 µM (inactive); in the assay on TK-10, > 100 µM (inactive). Further, the GI50 with HOP-92 is 15.3 µM (inactive); with SW-620, 46.1 µM (inactive); with SNB-19 it was 29.6 µM (inactive); in the assay on M14, 37.2 µM (inactive); in the assay with SR, 31.5 µM (inactive); in the assay on SK-OV-3, 39.5 µM (inactive). Also, the GI50 is 49.3 µM (inactive) in the assay with SF-539; 33.9 µM (inactive) with IGROV-1; 25.7 µM (inactive) with NCI-H226; 39.4 µM (inactive) with UACC-62; 30.3 µM (inactive) with HT-29; 19.8 µM (inactive) in the assay on K562.
With `CC(Cc1ccccc1)N(C)Cc1nc(C2CCC([N+](=O)[O-])O2)no1` (configuration not stated), the GI50 is 2.47 µM (inactive) in the assay with MDA-MB-231; 8.47 µM (inactive) in the assay with OVCAR-4; 12.4 µM (inactive) in the assay on DU-145; 28.4 µM (inactive) in the assay with EKVX; 13.5 µM (inactive) with TK-10; 21.3 µM (inactive) in the assay with HOP-92. Also, the GI50 is 3.1 µM (inactive) in the assay on SW-620; 12.2 µM (inactive) in the assay on SNB-19; 6 µM (inactive) with M14; 16.7 µM (inactive) with SR; 24.5 µM (inactive) in the assay on SK-OV-3; 3.32 µM (inactive) in the assay with SF-539. Also, the GI50 with IGROV-1 is 8.55 µM (inactive); in the assay with NCI-H226, 16.9 µM (inactive); in the assay on UACC-62, 5.96 µM (inactive); in the assay with HT-29, 2.77 µM (inactive).
Turning to `Cc1ccc(Nc2nc(N)nc3c2ncn3C2OC(CO)C(O)C2O)cc1` (configuration not stated), the GI50 in the assay with MDA-MB-231 was 98.9 µM (inactive); with ACHN, > 100 µM (inactive); in the assay on OVCAR-4 it was > 100 µM (inactive); with DU-145, > 100 µM (inactive); in the assay on EKVX, > 100 µM (inactive); in the assay with TK-10, > 100 µM (inactive). In addition, the GI50 in the assay on HOP-92, in the assay on SK-MEL-2, with SW-620, in the assay with SNB-19, in the assay on M14 and with SK-OV-3 was > 100 µM (inactive) each time. Besides, the GI50 in the assay on SF-539, with CAKI-1, with IGROV-1, with NCI-H226, with UACC-62 and in the assay on HT-29 was > 100 µM (inactive) in each case. Besides, the GI50 with K562 is > 100 µM (inactive).
For `O=[N+]([O-])c1ccc(N/N=C(\c2ccccc2)c2ccccn2)nc1`, the GI50 in the assay with MDA-MB-231 was 1 µM (active); with ACHN, 0.0785 µM (active); in the assay with OVCAR-4, 18.7 µM (inactive); in the assay with DU-145 it was 5.53 µM (inactive); in the assay with EKVX it was 0.171 µM (active); in the assay with HOP-92, 10.5 µM (inactive). Also, the GI50 in the assay with SK-MEL-2 was 14.8 µM (inactive); in the assay on SW-620, 0.223 µM (active); in the assay with SNB-19, 9.48 µM (inactive); in the assay with M14, 0.182 µM (active); in the assay on SR it was 1.48 µM (inactive); with SK-OV-3, 4.86 µM (inactive). The GI50 was 1.52 µM (inactive) with SF-539; 0.497 µM (active) with CAKI-1; 1.11 µM (active) with IGROV-1; 2.5 µM (inactive) with UACC-62; 0.0253 µM (active) in the assay with HT-29.
In the case of `CO[C@]12C[C@@H](CNC(=O)c3cc(Br)c[nH]3)O[C@H]1NC(=O)N2`, the GI50 with MDA-MB-231, with ACHN, in the assay on OVCAR-4, in the assay with DU-145, with EKVX and with TK-10 was > 100 µM (inactive) in each case. The GI50 in the assay on HOP-92, in the assay with SK-MEL-2, with SW-620, in the assay on SNB-19, in the assay on M14 and in the assay with SK-OV-3 was > 100 µM (inactive) in each case. Further, the GI50 with SF-539, in the assay with CAKI-1, with IGROV-1, in the assay on NCI-H226, in the assay on UACC-62 and in the assay with HT-29 was > 100 µM (inactive) in each case. In the assay with K562, the GI50 was > 100 µM (inactive).
For `CN1CCCN2CCN(C)CCN(CC1)CC2`, the GI50 in the assay on MDA-MB-231, in the assay on ACHN, with OVCAR-4, in the assay with DU-145, in the assay on EKVX and in the assay with TK-10 was > 100 µM (inactive) throughout. Moreover, the GI50 with HOP-92, with SK-MEL-2, in the assay on SW-620, in the assay with SNB-19, with M14 and in the assay on SR was > 100 µM (inactive) each time. The GI50 was > 100 µM (inactive) with SK-OV-3; 0.0366 µM (active) with SF-539; > 100 µM (inactive) with CAKI-1; > 100 µM (inactive) with IGROV-1; > 100 µM (inactive) in the assay on UACC-62; > 100 µM (inactive) in the assay with HT-29. Moreover, the GI50 with K562 is > 100 µM (inactive).
As to `Cc1cccc(-n2c(C)nc3ccc(NC4OC(CO)C(O)C(O)C4O)cc3c2=O)c1` (configuration not stated), the GI50 in the assay on MDA-MB-231, in the assay on ACHN, in the assay with OVCAR-4, in the assay on DU-145, in the assay with EKVX and in the assay with TK-10 was > 100 µM (inactive) in each case. The GI50 was 61 µM (inactive) in the assay on SK-MEL-2; > 100 µM (inactive) with SW-620; > 100 µM (inactive) with SNB-19; 50.7 µM (inactive) in the assay with SR; > 100 µM (inactive) with CAKI-1; > 100 µM (inactive) in the assay with IGROV-1. Moreover, the GI50 in the assay with NCI-H226, in the assay with UACC-62, with HT-29 and in the assay on K562 was > 100 µM (inactive) throughout.
`COC(=O)c1ccc2c(c1)S/C(=C/c1ccc3ccc4cccc5ccc1c3c45)S2`: the GI50 in the assay with MDA-MB-231 was > 100 µM (inactive); with ACHN it was > 100 µM (inactive); in the assay with OVCAR-4, 41.4 µM (inactive); in the assay on DU-145, > 100 µM (inactive); in the assay with EKVX, > 100 µM (inactive); in the assay with TK-10, 98.4 µM (inactive). The GI50 with HOP-92 is 43.5 µM (inactive); in the assay on SK-MEL-2, > 100 µM (inactive); with SW-620, 27.6 µM (inactive); in the assay with SNB-19 it was 50.6 µM (inactive); in the assay on M14 it was 32.1 µM (inactive); with SK-OV-3, > 100 µM (inactive). Further, the GI50 in the assay on SF-539 was > 100 µM (inactive); in the assay on CAKI-1, 40.1 µM (inactive); with IGROV-1, 46 µM (inactive); in the assay with NCI-H226, > 100 µM (inactive); with UACC-62, 22.9 µM (inactive); in the assay on HT-29 it was > 100 µM (inactive). Moreover, the GI50 in the assay on K562 was 34.3 µM (inactive).
In the case of `CNC(=S)Nc1ccc(OC)c2ccccc12`, the GI50 in the assay with MDA-MB-231, in the assay on ACHN, in the assay on OVCAR-4, in the assay on DU-145, in the assay on TK-10 and in the assay on HOP-92 was > 10 µM (inactive) throughout. The GI50 with SW-620, with SNB-19, with M14, in the assay with SR, with SK-OV-3 and with SF-539 was > 10 µM (inactive) in each case. Moreover, the GI50 in the assay on CAKI-1, in the assay on IGROV-1, in the assay on UACC-62, with HT-29 and with K562 was > 10 µM (inactive) throughout.

(Values after ChEMBL document CHEMBL1201862, “PubChem BioAssay data set” (2004).)
